One assay deals with KRAS G12V (Homo sapiens, UniProt P01116, G12V). In words: GDP-GTP exchange assay (bodipy-GDP/GppNHp, SOS1), KRAS G12V. The settings on record: KRAS G12V mutant; value for the most potent isomer quoted for certain compounds; read-out: G12V (KRAS G12V exchange assay IC50). It is filed as biochemical. As to the method: (§1) The inhibitor potency of the exemplified compounds was determined in a fluorescence based guanine nucleotide exchange assay, which measures the exchange of bodipy-GDP (fluorescently labeled GOP) for GppNHp (Non-hydrolyzable GTP analog) to generate the active state of KRAS in the presence of SOS1 (guanine nucleotide exchange factor). Inhibitors were serially diluted in DMSO and a volume of 0.1 μL was transferred to the wells of a black low volume 384-well plate. 5 μL/well volume of bodipy-loaded KRAS G12D diluted to 2.5 nM in assay buffer (25 mM Hepes pH 7.5, 50 mM NaCl, 10 mM MgCl2 and 0.01% Brij-35) was added to the plate and pre-incubated with inhibitor for 4 h at r.t. Appropriate controls (enzyme with no inhibitor or with a G12D inhibitor) were included on the plate. The exchange was initiated by the addition of a 5 μL/well volume containing 1 mM GppNHp and 300 nM SOS1 in assay buffer. The 10 μL/well reaction concentration of the bodipy-loaded KRAS G12D, GppNHp, and SOS1 were 2.5 nM, 500 μM, and 150 nM, respectively. The reaction plates were incubated at r.t. for 2 h, a time estimated for complete GDP-GTP exchange in the absence of inhibitor. For the KRAS G12V mutant, similar guanine nucleotide exchange assays were used with 2.5 nM as final concentration for the bodipy loaded KRAS proteins and 3 h incubation after adding GppNHp-SOS1 mixture. A cyclic peptide described to selectively bind G12D mutant (Sakamoto et al., BBRC 484.3 (2017), 605-611) or internal compounds with confirmed binding were used as positive controls in the assay plates. Fluorescence intensities were measured on a PheraStar plate reader instrument (BMG Labtech) with excitation at 485 nm and emission at 520 nm.
KRAS G12V, sequence (P01116 1-188 isoform P01116-2 G12V): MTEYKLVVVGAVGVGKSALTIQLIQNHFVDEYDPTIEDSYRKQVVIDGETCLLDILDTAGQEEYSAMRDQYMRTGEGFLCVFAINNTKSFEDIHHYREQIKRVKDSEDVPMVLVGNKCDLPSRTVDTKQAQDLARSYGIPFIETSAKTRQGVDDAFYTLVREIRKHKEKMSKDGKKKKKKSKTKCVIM
(§2) Either GraphPad prism or Genedata Screener SmartFit was used to analyze the data. The IC50 values were derived by fitting the data to a four parameter logistic equation producing a sigmoidal dose-response curve with a variable Hill coefficient.
(§3) The symbol “†” indicates IC50≤100 nM, “††” indicates IC50>100 nM but ≤1 μM; and “†††” indicates IC50 is >1 μM but ≤5 μM, “††††” indicates IC50 is >5 μM but ≤10 μM. “NA” indicates IC50 not available.

In the next assay the target is KRAS G12D (Homo sapiens, UniProt P01116, G12D). In words: GDP-GTP exchange assay (bodipy-GDP/GppNHp, SOS1), KRAS G12D. The settings on record: bodipy-loaded KRAS G12D 2.5 nM, 4 h pre-incubation; value for the most potent isomer quoted for certain compounds; read-out: G12D (KRAS G12D exchange assay IC50). It counts as biochemical. How it is done: as §1, §2, §3
KRAS G12D, sequence (P01116 1-188 isoform P01116-2 G12D): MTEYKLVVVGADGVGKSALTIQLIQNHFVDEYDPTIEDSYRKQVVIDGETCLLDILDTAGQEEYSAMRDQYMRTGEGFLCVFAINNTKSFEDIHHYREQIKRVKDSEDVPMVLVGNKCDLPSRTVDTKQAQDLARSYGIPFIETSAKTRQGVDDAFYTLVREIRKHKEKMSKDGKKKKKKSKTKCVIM

These results are taken from patent publication US20240390340A1 (INCYTE CORPORATION, priority 2023, published 2024).

Structures are written as SMILES.

By IC50 is commonly meant the midpoint of a concentration-inhibition curve. Consider `Cc1nc2c(F)c(-c3cccc(Cl)c3Cl)c(CCC#N)cc2c2c1cc([C@H]1C[C@H](Oc3cncnc3)CN1C(=O)C1CC1)n2[C@H]1[C@H]2CN[C@@H]1C2` [Example 136], for which the IC50 at KRAS G12V and at KRAS G12D was at most 100 nM each time.

Turning to `Cc1nc2c(F)c(-c3cccc(Cl)c3Cl)c(CCC#N)cc2c2c1cc([C@H]1C[C@H](Oc3cnccn3)CN1C(=O)C1CC1)n2[C@H]1[C@H]2CN[C@@H]1C2` [Example 137], the IC50 at KRAS G12V and on KRAS G12D was at most 100 nM in each case.

With `Cc1nc2c(F)c(-c3cccc(Cl)c3Cl)c(CCC#N)cc2c2c1cc([C@H]1C[C@H](Oc3cccnn3)CN1C(=O)C1CC1)n2[C@H]1[C@H]2CN[C@@H]1C2` [Example 138], the IC50 on KRAS G12V and on KRAS G12D was at most 100 nM in each case.

Regarding `Cc1ncccc1CO[C@H]1C[C@H](c2cc3c(C)nc4c(F)c(-c5cccc(Cl)c5Cl)c(CCC#N)cc4c3n2[C@H]2[C@H]3CN[C@@H]2C3)N(C(=O)C2CC2)C1` [Example 139], the IC50 on KRAS G12V and at KRAS G12D was at most 100 nM each time.

Regarding `Cc1ccnc(C)c1CO[C@H]1C[C@H](c2cc3c(C)nc4c(F)c(-c5cccc(Cl)c5Cl)c(CCC#N)cc4c3n2[C@H]2[C@H]3CN[C@@H]2C3)N(C(=O)C2(C)CC2)C1` [Example 140], the IC50 at KRAS G12V and on KRAS G12D was at most 100 nM throughout.

Turning to `Cc1nc2c(F)c(-c3cccc(Cl)c3Cl)c(CCC#N)cc2c2c1cc([C@H]1C[C@H](Oc3cccc(C(F)(F)F)n3)CN1C(=O)C1CC1)n2[C@H]1C2CNC1C2` (stereo partly drawn) [Example 142], the IC50 on KRAS G12V and on KRAS G12D was at most 100 nM throughout.

In the case of `Cc1nc2c(F)c(-c3cccc(Cl)c3Cl)c(CCC#N)cc2c2c1cc([C@H]1C[C@H](n3nncc3-c3ccccc3)CN1C(=O)C1CC1)n2[C@H]1[C@H]2CN[C@@H]1C2` [Example 143], the IC50 at KRAS G12V and on KRAS G12D was at most 100 nM throughout.

Turning to `Cc1nc2c(F)c(-c3cccc(Cl)c3Cl)c(CCC#N)cc2c2c1cc([C@H]1C[C@H](n3cc(Cc4ccccc4)nn3)CN1C(=O)C1CC1)n2[C@H]1[C@H]2CN[C@@H]1C2` [Example 145], the IC50 at KRAS G12V and at KRAS G12D was at most 100 nM in each case.

In the case of `COC(=O)N1C[C@@H](Oc2ccccn2)C[C@@H]1c1cc2c(-c3ccc(CN(C)C)c(F)c3F)nc3c(F)c(-c4cccc(Cl)c4Cl)c(CCC#N)cc3c2n1[C@H]1[C@H]2CN[C@@H]1C2` [Example 148], the IC50 on KRAS G12V and at KRAS G12D was at most 100 nM in each case.

As to `Cc1nc2c(F)c(-c3cccc(Cl)c3Cl)c(CCC#N)cc2c2c1cc([C@H]1C[C@H](OCc3cccnc3N)CN1C(=O)C1CC1)n2[C@H]1[C@H]2CN[C@@H]1C2` [Example 149], the IC50 at KRAS G12V and on KRAS G12D was at most 100 nM in each case.

As to `Cc1cccnc1CO[C@H]1C[C@H](c2cc3c(C)nc4c(F)c(-c5cccc(Cl)c5Cl)c(CCC#N)cc4c3n2[C@H]2[C@H]3CN[C@@H]2C3)N(C(=O)C2CC2)C1` [Example 150], the IC50 on KRAS G12V and on KRAS G12D was at most 100 nM in each case.

For the compound `Cc1nc2c(F)c(-c3cccc(Cl)c3Cl)c(CCC#N)cc2c2c1cc([C@H]1C[C@H](OCc3cccc(C#N)c3F)CN1C(=O)C1CC1)n2[C@H]1[C@H]2CN[C@@H]1C2` [Example 151], the IC50 at KRAS G12V and at KRAS G12D was at most 100 nM in each case.

Regarding `Cc1nc2c(F)c(-c3cccc(Cl)c3Cl)c(CCC#N)cc2c2c1cc([C@H]1C[C@H](OCc3ccc(C#N)cc3)CN1C(=O)C1CC1)n2[C@H]1[C@H]2CN[C@@H]1C2` [Example 152], the IC50 on KRAS G12V and on KRAS G12D was at most 100 nM in each case.

Take `Cc1nc2c(F)c(-c3cccc(Cl)c3Cl)c(CCC#N)cc2c2c1cc([C@H]1C[C@H](OCC3CCCC3)CN1C(=O)C1CC1)n2[C@H]1[C@H]2CN[C@@H]1C2` [Example 153]: the IC50 on KRAS G12V and at KRAS G12D was at most 100 nM in each case.

On to `COc1cccc(CO[C@H]2C[C@H](c3cc4c(C)nc5c(F)c(-c6cccc(Cl)c6Cl)c(CCC#N)cc5c4n3[C@H]3[C@H]4CN[C@@H]3C4)N(C(=O)C3CC3)C2)c1F` [Example 154], for which the IC50 at KRAS G12V and at KRAS G12D was at most 100 nM each time.

Consider `Cc1nc2c(F)c(-c3cccc(Cl)c3Cl)c(CCC#N)cc2c2c1cc([C@H]1C[C@H](OCc3ccc(Cl)cc3F)CN1C(=O)C1CC1)n2[C@H]1[C@H]2CN[C@@H]1C2` [Example 155], for which the IC50 on KRAS G12V and on KRAS G12D was at most 100 nM throughout.

Consider `Cc1nc2c(F)c(-c3cccc(Cl)c3Cl)c(CCC#N)cc2c2c1cc([C@H]1C[C@H](OCc3cccc(F)c3C#N)CN1C(=O)C1CC1)n2[C@H]1[C@H]2CN[C@@H]1C2` [Example 156], for which the IC50 at KRAS G12V and at KRAS G12D was at most 100 nM in each case.

`Cc1nc2c(F)c(-c3cccc(Cl)c3Cl)c(CCC#N)cc2c2c1cc([C@H]1C[C@H](OCc3cc(F)ccc3C#N)CN1C(=O)C1CC1)n2[C@H]1[C@H]2CN[C@@H]1C2` [Example 157]: the IC50 on KRAS G12V and at KRAS G12D was at most 100 nM each time.

Consider `CC(C)(O)c1ccc(-c2nc3c(F)c(-c4cccc(Cl)c4Cl)c(CCC#N)cc3c3c2cc([C@H]2C[C@H](OCc4c(F)cccc4F)CN2C(=O)C2CC2)n3[C@H]2[C@H]3CN[C@@H]2C3)cn1` [Example 158], for which the IC50 on KRAS G12V and on KRAS G12D was at most 100 nM throughout.

On to `Cc1nc2c(F)c(-c3cccc(Cl)c3Cl)c(CCC#N)cc2c2c1cc([C@H]1C[C@H](OCc3ccc(Cl)cc3C#N)CN1C(=O)C1CC1)n2[C@H]1[C@H]2CN[C@@H]1C2` [Example 159], for which the IC50 on KRAS G12V and on KRAS G12D was at most 100 nM each time.

As to `Cc1nc2c(F)c(-c3cccc(Cl)c3Cl)c(CCC#N)cc2c2c1cc([C@H]1C[C@H](n3nncc3Cc3ccccc3)CN1C(=O)C1CC1)n2[C@H]1[C@H]2CN[C@@H]1C2` [Example 160], the IC50 on KRAS G12V was at most 100 nM; on KRAS G12D, 100 to 1000 nM.

For the compound `Cc1nc2c(F)c(-c3cccc(Cl)c3Cl)c(CCC#N)cc2c2c1cc([C@H]1C[C@H](Oc3cccc(Cl)c3)CN1C(=O)C1CC1)n2[C@H]1[C@H]2CN[C@@H]1C2` [Example 161], the IC50 at KRAS G12V and at KRAS G12D was at most 100 nM throughout.

On to `COC(=O)N1C[C@@H](Oc2ccccn2)C[C@@H]1c1cc2c(C)nc3c(F)c(-c4cccc(Cl)c4Cl)c(CCC#N)cc3c2n1[C@H]1[C@H]2CN[C@@H]1C2` [Example 162], for which the IC50 at KRAS G12V and on KRAS G12D was at most 100 nM each time.

`Cc1nc2c(F)c(-c3cccc(Cl)c3Cl)c(CCC#N)cc2c2c1cc([C@H]1C[C@H](OCc3ccccc3S(C)(=O)=O)CN1C(=O)C1CC1)n2[C@H]1[C@H]2CN[C@@H]1C2` [Example 163]: the IC50 on KRAS G12V and on KRAS G12D was at most 100 nM in each case.

Consider `Cc1nc2c(F)c(-c3cccc(Cl)c3Cl)c(CCC#N)cc2c2c1cc([C@H]1C[C@H](OCc3cccc(S(C)(=O)=O)c3)CN1C(=O)C1CC1)n2[C@H]1[C@H]2CN[C@@H]1C2` [Example 164], for which the IC50 on KRAS G12V and on KRAS G12D was at most 100 nM throughout.

Consider `Cc1nc2c(F)c(-c3cccc(Cl)c3Cl)c(CCC#N)cc2c2c1cc([C@H]1C[C@H](OCc3cccc(C(=O)O)c3)CN1C(=O)C1CC1)n2[C@H]1[C@H]2CN[C@@H]1C2` [Example 165], for which the IC50 on KRAS G12V and on KRAS G12D was at most 100 nM throughout.

For the compound `Cc1cc(C)cc(O[C@H]2C[C@H](c3cc4c(C)nc5c(F)c(-c6cccc(Cl)c6Cl)c(CCC#N)cc5c4n3[C@H]3[C@H]4CN[C@@H]3C4)N(C(=O)C3CC3)C2)c1` [Example 166], the IC50 on KRAS G12V and at KRAS G12D was at most 100 nM each time.
